Patent US20090170846A1, “INHIBITORS OF THE HIV INTEGRASE ENZYME” (Pfizer Inc, priority 2005, published 2009)
pEC50, pIC50: −log10 of the molar value. Read-outs that look alike come from different tables or passages of the source.

Columns and labels:
[1] = system: RF strain of HIV-1 in CEM-SS cells; test: HIV-1 cell protection assay (XTT dye reduction); format: cell-based
Procedure, shortened: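 CEM-SS cells infected at an moi giving about 90% kill (mock-infected for toxicity) and exposed to half-log compound dilutions for six days; XTT/PMS added for 4 h, formazan read at 450 nm. EC50 as protection to 50% of uninfected control, CC50 from uninfected cells, therapeutic index as CC50/EC50.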

[2] = target: T1, Full-length wild type HIV-1 integrase (SF1) (Human immunodeficiency virus type 1 group M subtype B, UniProt P04585); test: Integrase strand-transfer scintillation proximity assay; format: biochemical
T1 construct: made in house; host or cells: E. coli BL21 (DE3)
Excerpt: Integrase Strand-Transfer Scintillation Proximity Assay
Oligonucleotides: Oligonucleotide #1-5′-(biotin)[…]-3′ (SEQ ID NO: 1) and oligonucleotide #2-5′-[…]-3′ (SEQ ID NO: 2), were synthesized by TriLink BioTechnologies, Inc. (San Diego, Calif.). The annealed product represents preprocessed viral ds-DNA derived from the LTR U5 sequence of the viral genome. A ds-DNA control to test for non-specific interactions was made using a 3′ di-deoxy derivative of oligonucleotide #1 annealed to oligonucleotide #2. The CA overhang at the 5′ end of the non-biotinylated strand of the ds-DNA was created artificially by using a complimentary DNA oligonucleotide shortened by 2 base pairs. This configuration eliminates the requisite 3′ processing step of the integrase enzyme prior to the strand-transfer mechanism.
Host ds-DNA was prepared as an unlabeled and [^3H]-thymidine labeled product from annealed oligonucleotide #3-5-[…]-3′ (SEQ ID NO: 3), and oligonucleotide #4-1-5′-[…]-3′ (SEQ ID NO: 4), both synthesized by TriLink BioTechnologies, Inc. (San Diego, Calif.). The annealed product had overhanging 3′ ends of poly(dA). Host DNA was custom radiolabeled by PerkinElmer Life Sciences Inc. (Boston, Mass.) using an enzymatic method with a 12/1 ratio of [methyl-^3H]dTTP/cold ds-DNA to yield 5′-blunt end ds-DNA with a specific activity of >900 Ci/mmol. The radiolabeled product was purified using a NENSORB cartridge and stored in stabilized aqueous solution (PerkinElmer). The final radiolabeled product had six [^3H]-thymidine nucleotides at both 5′ ends of the host ds-DNA.
Reagents: Streptavidin-coated polyvinyltoluene (PVT) SPA beads were purchased from Amersham Biosciences (Piscataway, N.J.). Cesium chloride was purchased from Shelton Scientific, Inc. (Shelton, Conn.). White, polystyrene, flat-bottom, non-binding surface, 96-well plates were purchased from Corning. All other buffer components were purchased from Sigma (St. Louis, Mo.) unless otherwise indicated.
Enzyme Construction Full-length wild type HIV-1 integrase (SF1) sequence (amino acids 1-289) was constructed in a pET24a vector (Novagen, Madison, Wis.). The construct was confirmed through DNA sequencing.
Enzyme Purification Full length wild-type HIV Integrase was expressed in E. coli BL21 (DE3) cells and induced with 1 mM isopropyl-1 thio-β-D-galactopyranoside (IPTG) when cells reached an optical density between 0.8-1.0 at 600 nm. Cells were lysed by microfluidation in 50 mM HEPES pH 7.0, 75 mM NaCl, 5 mM DTT, 1 mM 4-(2-Aminoethyl)benzenesulfonylfluoride HCl (AEBSF). Lysate was then centrifuged 20 minutes at 11 k rpm in GSA rotor in Sorvall RC-5B at 4° C. Supernant was discarded and pellet resuspended in 50 mM HEPES pH 7.0, 750 mM NaCl, 5 mM DTT, 1 mM AEBSF and homogenized in a 40 mL Dounce homogenizer for 20 minutes on ice. Homogenate was then centrifuged 20 minutes at 11 k rpm in SS34 rotor in Sorvall RC-5B at 4° C. Supernant was discarded and pellet resuspended in 50 mM HEPES pH 7.0, 750 mM NaCl, 25 mM CHAPS, 5 mM DTT, 1 mM AEBSF. Preparation was then centrifuged 20 minutes at 11 k rpm in SS34 rotor in Sorvall RC-5B at 4° C.
Supernant was then diluted 1:1 with 50 mM HEPES pH 7.0, 25 mM CHAPS, 1 mM DTT, 1 mM AEBSF and loaded onto a Q-Sepharose column pre-equilibrated with 50 mM HEPES, pH 7.0, 375 mM NaCl, 25 mM CHAPS, 1 mM DTT, 1 mM AEBSF. The flow through peak was collected and NaCl diluted to 0.1 M with 50 mM HEPES pH 7.0, 25 mM CHAPS, 1 mM DTT, 0.5 mM AEBSF and loaded onto a SP-Sepharose column pre-equilibrated with 50 mM HEPES pH 7.0, 100 mM NaCl, 25 mM CHAPS, 1 mM DTT, 0.5 mM AEBSF. After washing the column with the equilibration buffer, a 100 to 400 mM NaCl gradient was run. The eluted integrase was concentrated and run on a S-300 gel diffusion column using 50 mM HEPES pH 7.0, 500 mM NaCl, 25 mM CHAPS, 1 mM DTT, 0.5 mM AEBSF. The peak from this column was concentrated to 0.76 mg/mL and stored at −70° C. and later used for strand transfer assays. […]

[3] = Human immunodeficiency virus 1, 144 h, HIV-1 RF, CEM-SS cells, XTT, six days, read-out: EC50
[4] = integrase strand-transfer SPA, read-out: IC50
[5] = Human immunodeficiency virus 1, CEM-SS, 144 h

| SMILES | pEC50 [1, 3] | pIC50 [2, 4] | pIC50 [2] | pEC50 [1, 5] |
| --- | --- | --- | --- | --- |
| O=C(NO)c1cc2c(S(=O)(=O)NCCN3CCOCC3)cn(Cc3ccc(F)cc3F)c2cn1 [Example 37, 1-(2,4-difluorobenzyl)-N-hydroxy-3-{[(2-morpholin-4-ylethyl)amino]sulfonyl}-1H-pyrrolo[2,3-c]pyridine-5-carboxamide] | 6.31 | 6.79 | – | – |
| O=C1CN(S(=O)(=O)c2cn(Cc3ccc(F)cc3F)c3cnc(C(=O)NO)cc23)CCN1 [Example 38, 1-(2,4-difluorobenzyl)-N-hydroxy-3-[(3-oxopiperazin-1-yl)sulfonyl]-1H-pyrrolo[2,3-c]pyridine-5-carboxamide] | 5.10 | 6.58 | – | – |
| CONC(=O)c1cc2c(S(=O)(=O)N3CCNC(=O)C3)cn(Cc3ccc(F)cc3F)c2cn1 [Example 39, 1-(2,4-difluorobenzyl)-N-methoxy-3-[(3-oxopiperazin-1-yl)sulfonyl]-1H-pyrrolo[2,3-c]pyridine-5-carboxamide] | 6.68 | 6.52 | – | – |
| CONC(=O)c1cc2c(S(=O)(=O)NCCN3CCOCC3)cn(Cc3ccc(F)cc3F)c2cn1 [Example 40, 1-(2,4-difluorobenzyl)-N-methoxy-3-{[(2-morpholin-4-ylethyl)amino]sulfonyl}-1H-pyrrolo[2,3-c]pyridine-5-carboxamide] | 7.28 | 6.12 | – | – |
| CN(O)C(=O)c1cc2c(S(=O)(=O)N3CCNC(=O)C3)cn(Cc3ccc(F)cc3F)c2cn1 [Example 41, 1-(2,4-difluorobenzyl)-N-hydroxy-N-methyl-3-[(3-oxopiperazin-1-yl)sulfonyl]-1H-pyrrolo[2,3-c]pyridine-5-carboxamide] | 5.48 | – | 5.94 | – |
| CN(O)C(=O)c1cc2c(S(=O)(=O)N3CCC[C@H]3C(N)=O)cn(Cc3ccc(F)cc3F)c2cn1 [Example 42, 3-{[(2S)-2-(aminocarbonyl)pyrrolidin-1-yl]sulfonyl)-1-(2,4-difluorobenzyl)-N-hydroxy-N-methyl-1H-pyrrolo[2,3-c]pyridine-5-carboxamide] | 5.20 | – | 5.98 | – |
| CN(O)C(=O)c1cc2c(C(=O)NC[C@@H]3CCCO3)cn(Cc3ccc(F)cc3)c2cn1 [Example 43, 1-(4-fluorobenzyl)-N5-hydroxy-N5-methyl-N3-[(2S)-tetrahydrofuran-2-ylmethyl]-1H-pyrrolo[2,3-c]pyridine-3,5-dicarboxamide] | – | 6.66 | – | 7.10 |
| CC(C)NC(=O)c1cn(Cc2ccc(F)cc2)c2cnc(C(=O)N(C)O)cc12 [Example 44, 1-(4-fluorobenzyl)-N5-hydroxy-N3-isopropyl-N5-methyl-1H-pyrrolo[2,3-c]pyridine-3,5-dicarboxamide] | – | 6.69 | – | 7.15 |
| CN(O)C(=O)c1cc2c(C(=O)NCC(F)F)cn(Cc3ccc(F)cc3)c2cn1 [Example 45, N3-(2,2-difluoroethyl)-1-(4-fluorobenzyl)-N5-hydroxy-N5-methyl-1H-pyrrolo[2,3-c]pyridine-3,5-dicarboxamide] | – | 6.61 | – | 7.41 |
| CONC(=O)c1cc2c(C(=O)N3CCC[C@@H]3CO)cn(Cc3ccc(F)cc3)c2cn1 [Example 46] | – | 6.05 | – | 7.25 |
| CONC(=O)c1cc2c(C(=O)NC(C)C)cn(Cc3ccc(F)cc3)c2cn1 [Example 47, 1-(4-fluorobenzyl)-N3-isopropyl-N5-methoxy-1H-pyrrolo[2,3-c]pyridine-3,5-dicarboxamide] | – | 6.60 | – | 7.49 |
| CONC(=O)c1cc2c(C(=O)NCC(F)F)cn(Cc3ccc(F)cc3)c2cn1 [Example 48, N3-(2,2-difluoroethyl)-1-(4-fluorobenzyl)-N5-methoxy-1H-pyrrolo[2,3-c]pyridine-3,5-dicarboxamide] | – | 6.29 | – | 7.54 |
